Reference: US6723732B1, “Percutaneously adminstrable preparations containing cerebral function activators” (Shionogi & Co., Ltd., priority 1998, dated 2004)
Like-named read-outs stand apart in the source and are kept apart here.

What was measured:
[1] = system: acetylcholine release; assay: Acetylcholine release in frontal cortex dialysate (microdialysis) after percutaneous administration; assay type: in vivo, rat (Jcl Wistar strain male); conditions: 2, 4 and 8 mg/kg percutaneous, aqueous basic formulation 5.6 mg/mL; values only in FIG. 5 and 6
Method: The day before experiment, a dialysis probe of 2 mm membrane length was inserted into frontal cortex of non-fasting rats (Jcl Wistar strain male rat 9-11 W). On the day of experiment, abdominal region hair was removed using a hair clipper and shaver under 2% halothane anesthesia. The aqueous basic formulation containing 5.6 mg/mL of Compound (I-1) was administered at a volume of 0.125, 0.25 and 0.5 mL to the rayon cloths which area were 2.5, 5, and 10 cm^2, respectively (Dose: 2, 4 and 8 mg/kg). Then the rayon cloths were placed on the abdominal region by support tape and covered with gum tape. After the administration, acetylcholine concentration in dialysate was measured every 30 min. FIG. 5 indicates a time-course of acetylcholine release after the administration of Compound (I-1). The plot data express the percent of control and the control level was monitored before the administration of Compound (I-1) in the same rat. The AUC values were calculated for 4 hrs of acetylcholine release as the percent of control in FIG. 6.

[2] = system: skin; assay: Macroscopic check of the applied skin and subcutaneous part after the experiment (irritation); assay type: in vivo, rat (Jcl SD strain)
Method: (IV) After the blood collection at 8 hrs, the residual drug in pharmaceutical preparations of the present invention in the cell was recovered by the addition of 50 mL of methanol. The percent of apparent absorption was calculated by the difference between the initial dose and the recovered amount at 8 hrs. AUC and MRT were calculated from plasma concentration profiles measured by HPLC. Furthermore, the skin to which the applied pharmaceutical preparations were applied and their subcutaneous part were removed and macroscopically checked after the experiments.

[3] = Percutaneous administration by strapping technique to conscious rats (rayon cloth on abdominal region), plasma concentration by HPLC; assay type: in vivo, rat (Jcl Wistar strain male); conditions: for BA: absolute bioavailability, AUC percutaneous divided by AUC intravenous; for Percent of apparent absorption: residual drug in rayon cloth recovered at 24 hr; for Cmax / Tmax / AUC(0-t): male, Jcl Wistar, rat, plasma, topical or ocular, conscious rats; for Cmax: aqueous base 3% 1-menthol/30% ethanol/67% pH 4 phosphate buffer, 5.6 mg/mL; for Tmax / AUC(0-t): aqueous base pH 4, 5.6 mg/mL; for AUC(0-t): read-out: AUC 0-360 min (converted)
Method: The experiment was performed by the strapping technique under the conscious condition. Non-fasting rats (Jcl Wistar strain male rat 9-11 W) were cannulated in the jugular vein two days before the percutaneous administration experiment. On the day of experiment, abdominal region hair of rats were removed using a hair clipper and shaver under ether anesthesia. Three different volumes (0.125, 0.25, and 0.5 mL) of the aqueous basic formulation (3% 1-menthol/30% ethanol/67% pH 4 phosphate buffer) containing 5.6 mg/mL of Compound (I-1) were administered (2, 4, and 8 mg/kg) on the rayon cloths, which area were 2.5, 5, and 10 cm^2, respectively, supported by tape on the abdominal region then covered with gum tape. Blood samples were collected from the jugular vein of the rats in a cage, at the time of 0, 0.5, 1, 2, 3, 4, 6, 8, and 10 hr. Plasma concentrations were measured by HPLC. The rayon cloths were recovered at 24 hr after the administration and the residual drug was extracted by 30 mL of methanol in a 50 mL centrifuge tube and measured its concentration by HPLC. The percent of apparent absorption was calculated and the absolute bioavailability was calculated from the AUC of percutaneous administration divided by the AUC of intravenous administration.

[4] = Percutaneous administration to anesthetized rats (glass cell on abdominal skin), plasma concentration by HPLC and residual drug recovery; assay type: in vivo, rat (Jcl SD strain); conditions: for MRT / AUC / Cmax / Tmax: Jcl SD, rat, plasma, topical or ocular, N=3
Method: (I) A base was composed of 2.5% 1-menthol/20% ethanol/77.5% distilled water. The phosphate salt of Compound (I-1) as an active ingredient was dissolved or dispersed in it at concentrations of 1.4, 5.6, and 11.2 mg/mL. (II) To Non-fasting rats (Jcl SD strain rat, 9-10 weeks old) was injected 20% urethane solution subcutaneously (0.65 mL/100 g BW). After the anesthetic condition of the rat became stable, abdominal hair was removed using a hair clipper and shaver, then the rats were kept on a hotplate at 36° C. A glass cell (35 mm I.D. with a ground stopper) was attached using Aron alpha (trademark) in an abdominal region of the rat and absorbent gauze (about two sheets) was placed in the cell, then 0.5 mL of the above obtained pharmaceutical preparations of the invention was administrated to the cell (2, 8 or 16 mg/kg, N=3). (III) The time of blood collection: 0, 1, 2, 3, 4, 6, and 8 hr after the administration (IV) After the blood collection at 8 hrs, the residual drug in pharmaceutical preparations of the present invention in the cell was recovered by the addition of 50 mL of methanol. The percent of apparent absorption was calculated by the difference between the initial dose and the recovered amount at 8 hrs. AUC and MRT were calculated from plasma concentration profiles measured by HPLC. Furthermore, the skin to which the applied pharmaceutical preparations were applied and their subcutaneous part were removed and macroscopically checked after the experiments. A phosphate buffer of pH 9 was prepared from 1/15 mole of dibasic sodium phosphate dissolved in […] of distilled water. The phosphate buffers of pH 4 and pH 7 were prepared by the addition of phosphoric acid to the pH 9 buffer. A bBase was composed of 3% 1-menthol/30% ethanol/67% phosphate buffer. The phosphate salt of Compound (I-1) as an active ingredient was dissolved or dispersed in the base at a concentration of 5.6 mg/mL. Other conditions were the same as that of Experiment 1 (N=3). Results are represented in Table 2 and FIG. 2. The phosphate salt of Compound (I-1) as an active ingredient was dissolved or dispersed in bases in Table 3 at a concentration of 5.6 mg/mL. Other condition were the same as that of the Experiment 1. The 3% 1-menthol/30% ethanol/67% pH 4 phosphate buffer was selected as an aqueous base. The 2.5% 1-menthol/20% ethanol/77.5% isopropyl myristate was selected as an oily base. The phosphate salt of Compound (I-1) as an active ingredient was dissolved or dispersed in the aqueous or oily formulation at a concentration of 5.6 mg/mL. Other conditions were the same as that of Experiment 1 (N=3).

[5] = 8 mg/kg, pH 4, aqueous base 3% 1-menthol/30% ethanol/67% pH 4 phosphate buffer, phosphate salt 5.6 mg/mL
[6] = 8 mg/kg, pH 4, base pH 4: 3% 1-menthol/30% ethanol/67% phosphate buffer, phosphate salt 5.6 mg/mL
[7] = 8 mg/kg, pH 7, base pH 7: 3% 1-menthol/30% ethanol/67% phosphate buffer, phosphate salt 5.6 mg/mL
[8] = 8 mg/kg, aqueous base 3% 1-menthol/30% ethanol/67% pH 4 phosphate buffer, phosphate salt 5.6 mg/mL
[9] = 8 mg/kg, oily base 2.5% 1-menthol/20% ethanol/77.5% isopropyl myristate, phosphate salt 5.6 mg/mL

c1cc(-c2nc3c4c(ncc3[nH]2)CCOC4)no1 [Compound (I-1), 2-(3-isoxazolyl)-3,6,7,9-tetrahydroimidazo[4,5-d]pyrano[4,3-b]pyridine]
acetylcholine release in frontal cortex dialysate (percent of control, time-course and AUC for 4 hrs) [1]: prolonged pharmacological effect | skin irritation (macroscopic check) ([2]; Experiment 1: all doses (2, 8, 16 mg/kg), 2.5% 1-menthol/20% ethanol/77.5% distilled water base): No irritations | skin irritation (macroscopic check) ([2]; Experiment 2: all formulations (pH 4 and pH 7 phosphate buffer bases), 5.6 mg/mL): No irritations | BA ([3]; 2 mg/kg percutaneous): 30.92 ± 2.59% | Percent of apparent absorption ([3]; 2 mg/kg percutaneous): 63.9% | BA ([3]; 4 mg/kg percutaneous): 17.86 ± 6.40% | Percent of apparent absorption ([3]; 4 mg/kg percutaneous): 52.8% | BA ([3]; 8 mg/kg percutaneous): 22.68 ± 9.47% | Percent of apparent absorption ([3]; 8 mg/kg percutaneous): 60.0% | Cmax ([3]; 2 mg/kg percutaneous (0.125 mL, 2.5 cm^2)): 0.14 ± 0.03 µg/mL | Tmax ([3]; 2 mg/kg percutaneous): 1.25 h | AUC(0-t) ([3]; 2 mg/kg percutaneous): 0.375 µg·h/mL | Cmax ([3]; 4 mg/kg percutaneous (0.25 mL, 5 cm^2)): 0.17 ± 0.06 µg/mL | Tmax ([3]; 4 mg/kg percutaneous): 1.55 h | AUC(0-t) ([3]; 4 mg/kg percutaneous): 0.408 µg·h/mL | Cmax ([3]; 8 mg/kg percutaneous (0.5 mL, 10 cm^2)): 0.45 ± 0.15 µg/mL | Tmax ([3]; 8 mg/kg percutaneous): 0.85 h | AUC(0-t) ([3]; 8 mg/kg percutaneous): 1 µg·h/mL | Percent of apparent absorption ([4]; 2 mg/kg percutaneous, phosphate salt in 2.5% 1-menthol/20% ethanol/77.5% distilled water, initial dose minus recovered amount at 8 hrs): 71.3% | Percent of apparent absorption ([4]; 8 mg/kg percutaneous, phosphate salt in 2.5% 1-menthol/20% ethanol/77.5% distilled water, initial dose minus recovered amount at 8 hrs): 81.0% | Percent of apparent absorption ([4]; 16 mg/kg percutaneous, phosphate salt in 2.5% 1-menthol/20% ethanol/77.5% distilled water, initial dose minus recovered amount at 8 hrs): 35.8% | MRT ([4]; 2 mg/kg, 2 mg/kg percutaneous, phosphate salt 1.4 mg/mL in 2.5% 1-menthol/20% ethanol/77.5% distilled water): 3.4 ± 0.6 h | AUC ([4]; 2 mg/kg, 2 mg/kg percutaneous, phosphate salt 1.4 mg/mL in 2.5% 1-menthol/20% ethanol/77.5% distilled water, blood to 8 hr): 0.49 ± 0.5 µg·h/mL | MRT ([4]; 8 mg/kg, 8 mg/kg percutaneous, phosphate salt 5.6 mg/mL in 2.5% 1-menthol/20% ethanol/77.5% distilled water): 3.6 ± 0.2 h | AUC ([4]; 8 mg/kg, 8 mg/kg percutaneous, phosphate salt 5.6 mg/mL in 2.5% 1-menthol/20% ethanol/77.5% distilled water, blood to 8 hr): 0.72 ± 0.05 µg·h/mL | AUC [4, 5]: 1.61 ± 0.3 µg·h/mL | MRT [4, 5]: 2.2 ± 0.5 h | AUC [4, 6]: 1.81 ± 0.3 µg·h/mL | MRT [4, 6]: 3 ± 0.2 h | AUC [4, 7]: 0.38 ± 0.18 µg·h/mL | MRT [4, 7]: 3.4 ± 0.3 h | Cmax [4, 8]: 0.69 ± 0.13 µg/mL | Tmax [4, 8]: 1.3 ± 0.6 h | AUC [4, 9]: 0.47 ± 0.1 µg·h/mL | Cmax [4, 9]: 0.16 ± 0.01 µg/mL | MRT [4, 9]: 2.6 ± 0.6 h | Tmax [4, 9]: 1 h | MRT ([4]; 16 mg/kg, 16 mg/kg percutaneous, phosphate salt 11.2 mg/mL in 2.5% 1-menthol/20% ethanol/77.5% distilled water): 4 ± 0.7 h | AUC ([4]; 16 mg/kg, 16 mg/kg percutaneous, phosphate salt 11.2 mg/mL in 2.5% 1-menthol/20% ethanol/77.5% distilled water, blood to 8 hr): 0.46 ± 0.18 µg·h/mL | Percent of apparent absorption ([4]; base 2.5% I-menthol, 20% ethanol, 77.5% isopropyl myristate, phosphate salt 5.6 mg/mL): 28.1% | Percent of apparent absorption ([4]; base pH 4: 3% 1-menthol/30% ethanol/67% phosphate buffer, phosphate salt 5.6 mg/mL): 66.8% | Percent of apparent absorption ([4]; base pH 7: 3% 1-menthol/30% ethanol/67% phosphate buffer, phosphate salt 5.6 mg/mL): 22.6% | Percent of apparent absorption ([4]; reference example base 5% N-methyl pyrrolidone, 5% ethanol, 90% isopropyl myristate, phosphate salt 5.6 mg/mL): 17.4% | Percent of apparent absorption ([4]; reference example base 5% ethanol, 95% isopropyl myristate, phosphate salt 5.6 mg/mL): 13.0% | Percent of apparent absorption ([4]; reference example base 5% lactic acid, 5% ethanol, 90% isopropyl myristate, phosphate salt 5.6 mg/mL): 11.9% | concentrations of Compound (I-1) in all plasma samples ([4]; reference example bases of Table 3, under the limit of detection): < 0.05 µg/mL
